Results: patent US12396963B2, “Cannabidiol-type cannabinoid compound” (JAZZ PHARMACEUTICALS RESEARCH UK LIMITED, priority 2019, dated 2025)

Experiments:
[1] = system: mouse model of generalised seizure; assay: Maximal electroshock seizure threshold (MEST) test in the mouse, Example 3; details: CC50, 30 min pre-treatment
Method: The efficacy of CBD-C1 was tested in a mouse model of generalised seizure, the maximal electroshock seizure threshold (M EST) test, as in Example 2.
Naïve mice were acclimatised to the procedure room in their home cages for up to 7 days, with food and water available ad libitum.
All animals were weighed at the beginning of the study and randomly assigned to treatment groups based on a mean distribution of body weight across groups.
The first animal within a treatment group was given a shock at the expected or estimated CC50 current. For subsequent animals, the current was lowered or raised depending on the convulsions outcome from the preceding animal.
Data generated from each treatment group were used to calculate the CC50±SEM values for the treatment group.
Vehicle: (5% ethanol, 5% solutol, 90% Saline) was prepared as follows: 2 mL of ethanol, 2 mL of solutol were warmed to 60° C., in 36 mL of saline (1:1:18).
The test compound, CBD-C1 was prepared according to the method described in Example 1. […]
CBD-C1 effects were also calculated as percentage change in CC50 from the vehicle control group.
Significant difference between drug-treated animals and controls were assessed according to Litchfield and Wilcoxon (1949).

mouse model of seizure = assay: Maximal electroshock seizure threshold (MEST) test in the mouse, Example 2; details: CC50; 2.5 mg/kg i.p., 30 min pre-treatment
Method: The efficacy of CBD-C1 was tested in a mouse model of seizure, the maximal electroshock seizure threshold (MEST) test.
The maximal electroshock seizure threshold (MEST) test is widely utilized preclinically to evaluate pro- and anti-convulsant properties of molecules (Loscher et al., 1991).
In the MEST test the ability of a drug to alter the seizure threshold current required to induce hind limb tonic extensor convulsions is measured according to an “up and down” method of shock titration (Kimball et al., 1957). An increase in seizure threshold is indicative of anti-convulsant effect.
Naïve mice were acclimatised to the procedure room in their home cages, with food and water available ad libitum.
Animals were dosed i.p. according to dose group.
The vehicle (10 ml/kg i.p. 60 min pre-treatment time) was 1:1:18 vehicle 5% ethanol, 5% kolliphor EL, 90% saline. […]
Mice were individually assessed for the production of a tonic hind limb extensor seizure using a Hugo Sachs Electronik stimulator, which delivered an adjustable constant current (1-300 mA) of 0.1 s duration via corneal electrodes. […]
Induction of seizure is measured as an all-or-nothing effect scored as either present (+) or absent (0) for each animal.
Data was analysed by comparing treated groups with the appropriate vehicle control using Fisher's Exact Probability tests.

Row | Compound | % change from vehicle ([1]; 250 mg/kg i.p.) [%] | % change from vehicle (mouse model of seizure) [%] | % change from vehicle ([1]; 2.5 mg/kg i.p.) [%]
1 | CCCC(CCC)C(=O)[O-].[Na+] [Sodium Valproate, sodium valproate, reference compound] | 1160 | – | –
2 | CN1C(=O)CN=C(c2ccccc2)c2cc(Cl)ccc21 [Diazepam, diazepam, reference compound] | – | 68 | 247
